From ChEMBL document CHEMBL1201862, “PubChem BioAssay data set” (2004)
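These data come from cells grown in 96-well plates and exposed to compound for 48 hours at five concentrations. At the GI50, growth is halved.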 Calls of active or inactive are those of the source. Cut-off read from the data, not from the text of the source: active = GI50 up to about 1.1 µM and inactive = higher.

Assays:
Experiment in all cases: NCI anticancer screen, dose series, 48 h
[1] = test system: A549
[2] = test system: NCI-H460
[3] = test system: LOX IMVI
[4] = test system: SR
[5] = test system: BT-549
[6] = test system: M14
[7] = test system: RXF 393
[8] = test system: SF-539
[9] = test system: SF-295
[10] = test system: EKVX
[11] = test system: IGROV-1
[12] = test system: SW-620
[13] = test system: A498
[14] = test system: SN12C
[15] = test system: MOLT-4
[16] = test system: MDA-N
[17] = test system: ACHN
[18] = test system: SK-OV-3
[19] = test system: UO-31
[20] = test system: HCT-116
[21] = test system: NCI/ADR-RES
[22] = test system: OVCAR-8
[23] = test system: HL-60
[24] = test system: TK-10
[25] = test system: HOP-62
[26] = test system: HCC 2998
[27] = test system: RPMI-8226
[28] = test system: SNB-19
[29] = test system: SK-MEL-5
[30] = test system: CAKI-1
[31] = test system: T47D
[32] = test system: MDA-MB-435
[33] = test system: SNB-75
[34] = test system: HCT-15
[35] = test system: K562
[36] = test system: KM12
[37] = test system: HOP-92
[38] = test system: Malme-3M
[39] = test system: MDA-MB-231
[40] = test system: SK-MEL-2
[41] = test system: HT-29
[42] = test system: Hs-578T
[43] = test system: OVCAR-5
[44] = test system: SF-268
[45] = test system: UACC-62
[46] = test system: OVCAR-4
[47] = test system: NCI-H226
[48] = test system: MCF7
[49] = test system: OVCAR-3
[50] = test system: PC-3
[51] = test system: 786-0
[52] = test system: COLO 205
[53] = test system: CCRF-CEM
[54] = test system: U-251
[55] = test system: NCI-H522
[56] = test system: NCI-H23
[57] = test system: UACC-257
[58] = test system: SK-MEL-28
[59] = test system: DU-145

O=C(O)/C=C/C(=O)Nc1cccc2c1-c1ccccc1C2=O
GI50 [1]: 20.9 µM (inactive) | GI50 [2]: 3.67 µM (inactive) | GI50 [3]: 8.91 µM (inactive) | GI50 [4]: 9.2 µM (inactive) | GI50 [5]: 16.9 µM (inactive) | GI50 [6]: 9.4 µM (inactive) | GI50 [7]: 8.2 µM (inactive) | GI50 [8]: 3.46 µM (inactive) | GI50 [9]: 3.57 µM (inactive) | GI50 [10]: > 90.8 µM (inactive) | GI50 [11]: 4.75 µM (inactive) | GI50 [12]: 5.53 µM (inactive) | GI50 [13]: 53 µM (inactive) | GI50 [14]: 36.6 µM (inactive) | GI50 [15]: 2.63 µM (inactive) | GI50 [16]: 2.99 µM (inactive) | GI50 [17]: 17.3 µM (inactive) | GI50 [18]: 22.9 µM (inactive) | GI50 [19]: 11.8 µM (inactive) | GI50 [20]: 42.8 µM (inactive) | GI50 [21]: 10.3 µM (inactive) | GI50 [22]: 21.6 µM (inactive) | GI50 [23]: 1.28 µM (inactive) | GI50 [24]: 5.68 µM (inactive) | GI50 [25]: 8.75 µM (inactive) | GI50 [26]: 22.2 µM (inactive) | GI50 [27]: 8.81 µM (inactive) | GI50 [28]: 17.9 µM (inactive) | GI50 [29]: 4.39 µM (inactive) | GI50 [30]: 4.26 µM (inactive) | GI50 [31]: > 51.5 µM (inactive) | GI50 [32]: 2.85 µM (inactive) | GI50 [33]: > 20.6 µM (inactive) | GI50 [34]: 10.2 µM | GI50 [35]: 3.91 µM (inactive) | GI50 [36]: 16.9 µM (inactive) | GI50 [37]: 4.06 µM (inactive) | GI50 [38]: 8.28 µM (inactive) | GI50 [39]: 13.3 µM (inactive) | GI50 [40]: 3.56 µM (inactive) | GI50 [41]: 22.3 µM (inactive) | GI50 [42]: 3.76 µM (inactive) | GI50 [43]: > 63.4 µM (inactive) | GI50 [44]: 16.3 µM (inactive) | GI50 [45]: 6.58 µM (inactive) | GI50 [46]: 22.9 µM (inactive) | GI50 [47]: 31.2 µM (inactive) | GI50 [48]: 11.3 µM (inactive) | GI50 [49]: 2.21 µM (inactive) | GI50 [50]: 5.7 µM (inactive) | GI50 [51]: 9.53 µM (inactive) | GI50 [52]: 13.1 µM (inactive) | GI50 [53]: 4.32 µM (inactive) | GI50 [54]: 5.27 µM (inactive) | GI50 [55]: 3.25 µM (inactive) | GI50 [56]: 18.2 µM (inactive) | GI50 [57]: 3.75 µM (inactive) | GI50 [58]: > 29.6 µM (inactive) | GI50 [59]: 10.3 µM (inactive)

N/N=C(\c1nc2ccc([N+](=O)[O-])cc2nc1O)C(O)c1ccc(Cl)c(Cl)c1 (configuration not stated)
GI50 [1]: > 100 µM (inactive) | GI50 [2]: 82.4 µM (inactive) | GI50 [3]: 33.4 µM (inactive) | GI50 [4]: 61.5 µM (inactive) | GI50 [5]: > 100 µM (inactive) | GI50 [6]: > 100 µM (inactive) | GI50 [7]: > 100 µM (inactive) | GI50 [8]: > 100 µM (inactive) | GI50 [9]: > 100 µM (inactive) | GI50 [10]: > 100 µM (inactive) | GI50 [11]: > 100 µM (inactive) | GI50 [12]: 56.9 µM (inactive) | GI50 [13]: > 100 µM (inactive) | GI50 [14]: > 100 µM (inactive) | GI50 [15]: 22 µM (inactive) | GI50 [16]: > 100 µM (inactive) | GI50 [17]: 54.1 µM (inactive) | GI50 [18]: 88.1 µM (inactive) | GI50 [19]: 26.7 µM (inactive) | GI50 [20]: 71.3 µM (inactive) | GI50 [21]: > 100 µM (inactive) | GI50 [22]: > 100 µM (inactive) | GI50 [23]: 47.4 µM (inactive) | GI50 [24]: > 100 µM (inactive) | GI50 [25]: > 100 µM (inactive) | GI50 [26]: > 100 µM (inactive) | GI50 [27]: 22.8 µM (inactive) | GI50 [28]: > 100 µM (inactive) | GI50 [29]: 61.8 µM (inactive) | GI50 [30]: > 100 µM (inactive) | GI50 [31]: 67.3 µM (inactive) | GI50 [32]: 71.6 µM (inactive) | GI50 [33]: > 100 µM (inactive) | GI50 [34]: > 100 µM | GI50 [35]: 96.6 µM (inactive) | GI50 [36]: 28.3 µM (inactive) | GI50 [37]: > 100 µM (inactive) | GI50 [38]: > 100 µM (inactive) | GI50 [39]: > 100 µM (inactive) | GI50 [40]: > 100 µM (inactive) | GI50 [41]: > 100 µM (inactive) | GI50 [42]: > 100 µM (inactive) | GI50 [43]: > 100 µM (inactive) | GI50 [44]: > 100 µM (inactive) | GI50 [45]: > 100 µM (inactive) | GI50 [46]: > 100 µM (inactive) | GI50 [47]: > 100 µM (inactive) | GI50 [48]: > 100 µM (inactive) | GI50 [49]: > 100 µM (inactive) | GI50 [50]: > 100 µM (inactive) | GI50 [51]: > 100 µM (inactive) | GI50 [52]: > 100 µM (inactive) | GI50 [53]: 15.8 µM (inactive) | GI50 [54]: > 100 µM (inactive) | GI50 [55]: 13.9 µM (inactive) | GI50 [56]: > 100 µM (inactive) | GI50 [57]: > 100 µM (inactive) | GI50 [58]: > 100 µM (inactive) | GI50 [59]: > 100 µM (inactive)

O=C(CC(c1ccccc1)N1CCCCC1)c1ccccc1 (configuration not stated)
GI50 [1]: 20.5 µM (inactive) | GI50 [2]: 13 µM (inactive) | GI50 [3]: 5.66 µM (inactive) | GI50 [4]: 1.7 µM (inactive) | GI50 [5]: 18.2 µM (inactive) | GI50 [6]: 21.5 µM (inactive) | GI50 [7]: 18 µM (inactive) | GI50 [8]: 19 µM (inactive) | GI50 [9]: 16.5 µM (inactive) | GI50 [10]: 17.7 µM (inactive) | GI50 [11]: 14 µM (inactive) | GI50 [12]: 4.06 µM (inactive) | GI50 [13]: 15.6 µM (inactive) | GI50 [14]: 15.6 µM (inactive) | GI50 [15]: 1.96 µM (inactive) | GI50 [16]: 12.2 µM (inactive) | GI50 [17]: 17 µM (inactive) | GI50 [18]: 17.6 µM (inactive) | GI50 [19]: 19.2 µM (inactive) | GI50 [20]: 7.31 µM (inactive) | GI50 [21]: 22.5 µM (inactive) | GI50 [22]: 15.5 µM (inactive) | GI50 [23]: 12.5 µM (inactive) | GI50 [24]: 14.2 µM (inactive) | GI50 [25]: 17.7 µM (inactive) | GI50 [26]: 4.62 µM (inactive) | GI50 [27]: 2.49 µM (inactive) | GI50 [28]: 19.6 µM (inactive) | GI50 [29]: 15.6 µM (inactive) | GI50 [30]: 15.7 µM (inactive) | GI50 [31]: 17.9 µM (inactive) | GI50 [32]: 12.2 µM (inactive) | GI50 [33]: 16.6 µM (inactive) | GI50 [34]: 14.9 µM | GI50 [35]: 1.44 µM (inactive) | GI50 [36]: 6.82 µM (inactive) | GI50 [37]: 15 µM (inactive) | GI50 [38]: 16 µM (inactive) | GI50 [39]: 18.9 µM (inactive) | GI50 [40]: 19.8 µM (inactive) | GI50 [41]: 13.8 µM (inactive) | GI50 [42]: 24.8 µM (inactive) | GI50 [43]: 17.5 µM (inactive) | GI50 [44]: 16 µM (inactive) | GI50 [45]: 16.6 µM (inactive) | GI50 [46]: 18.4 µM (inactive) | GI50 [47]: 18.4 µM (inactive) | GI50 [48]: 2.47 µM (inactive) | GI50 [49]: 11.2 µM (inactive) | GI50 [50]: 15 µM (inactive) | GI50 [51]: 11.2 µM (inactive) | GI50 [52]: 20.1 µM (inactive) | GI50 [53]: 2.09 µM (inactive) | GI50 [54]: 9.51 µM (inactive) | GI50 [55]: 12.9 µM (inactive) | GI50 [56]: 16 µM (inactive) | GI50 [57]: 14.4 µM (inactive) | GI50 [58]: 17.8 µM (inactive) | GI50 [59]: 15.1 µM (inactive)
